From the NIST ThermoML archive (doi:10.1021/acs.jced.5b00662) come the findings set out here.

Molecules are shown by their SMILES. “And” between values parts separate entries of the source, which are not always exact repeats. Equal values may be shown once. ± gives the expanded uncertainty stated by the source.

For one data set the following is noted: 333.15 K; 101.33 kPa; Liquid; Sing-around technique in a fixed-path interferometer.
For the molecule `CCOCCO` [2-ethoxyethan-1-ol], the speed of sound is recorded as 1178.5 ± 1.5 m/s.

On to `COCCOCCOC` [2,5,8-trioxanonane], for which the speed of sound was found to be 1143.4 ± 2 m/s.

The data set is the same for the next values; noted with them: 333.15 K; 101.33 kPa; Liquid; Vibrating tube method.
On to `OCCOCCO` [diethylene glycol], for which the mass density was 1087.4 ± 2 kg/m3 and 1088.8 ± 2 kg/m3.

Regarding `CCOCCOCCO` [3,6-dioxa-1-octanol], the mass density was 952.2 ± 4.1 kg/m3 and 953.5 ± 4.1 kg/m3.

`CCOCCO` [2-ethoxyethan-1-ol]: the mass density was 895 ± 2 kg/m3 and 895.1 ± 2 kg/m3.

On to `COCCOCCOC` [2,5,8-trioxanonane], for which the mass density was 903.6 ± 1.1 kg/m3 and 905 ± 1.1 kg/m3.

Staying with this data set, now noted: 338.15 K; 101.33 kPa; Liquid; Concentric cylinders viscometry.
For the molecule `OCCOCCO` [diethylene glycol], the viscosity turned out to be 6.561 ± 0.27 mPa·s.

On to `CCOCCOCCO` [3,6-dioxa-1-octanol], for which the viscosity amounted to 1.583 ± 0.066 mPa·s.

For `CCOCCO` [2-ethoxyethan-1-ol], the viscosity was found to be 0.895 ± 0.037 mPa·s.

As for `COCCOCCOC` [2,5,8-trioxanonane], the viscosity is 0.599 ± 0.025 mPa·s.

The data set is the same for the next values; noted with them: 338.15 K; 101.33 kPa; Liquid; Vibrating tube method.
In the case of `OCCOCCO` [diethylene glycol], the mass density was determined as 1085.2 ± 2 kg/m3.

Turning to `CCOCCOCCO` [3,6-dioxa-1-octanol], the mass density was 949 ± 4.1 kg/m3.

For the molecule `CCOCCO` [2-ethoxyethan-1-ol], the mass density was 890.4 ± 2 kg/m3.

Take `COCCOCCOC` [2,5,8-trioxanonane]: the mass density turned out to be 899.9 ± 1.1 kg/m3.

Still in this data set, the particulars now being: 343.15 K; 101.33 kPa; Liquid; Concentric cylinders viscometry.
For `OCCOCCO` [diethylene glycol], the viscosity is given as 5.718 ± 0.23 mPa·s.

Consider `CCOCCOCCO` [3,6-dioxa-1-octanol], for which the viscosity is recorded as 1.456 ± 0.061 mPa·s.

`CCOCCO` [2-ethoxyethan-1-ol]: the viscosity was 0.829 ± 0.034 mPa·s.

As to `COCCOCCOC` [2,5,8-trioxanonane], the viscosity is listed as 0.566 ± 0.024 mPa·s.

Staying with this data set, now noted: 343.15 K; 101.33 kPa; Liquid; Sing-around technique in a fixed-path interferometer.
As for `OCCOCCO` [diethylene glycol], the speed of sound came out at 1470.1 ± 1.6 m/s.

On to `CCOCCOCCO` [3,6-dioxa-1-octanol], for which the speed of sound is reported as 1218.9 ± 2.3 m/s.

In the case of `CCOCCO` [2-ethoxyethan-1-ol], the speed of sound was 1143.7 ± 1.5 m/s.

`COCCOCCOC` [2,5,8-trioxanonane]: the speed of sound is on record as 1105.8 ± 2 m/s.

Staying with this data set, now noted: 343.15 K; 101.33 kPa; Liquid; Vibrating tube method.
`OCCOCCO` [diethylene glycol]: the mass density is 1081.5 ± 2 kg/m3 and 1080 ± 2 kg/m3.

Take `CCOCCOCCO` [3,6-dioxa-1-octanol]: the mass density is 944.4 ± 4.1 kg/m3 and 943.1 ± 4.1 kg/m3.

With `CCOCCO` [2-ethoxyethan-1-ol], the mass density is 885.5 ± 2 kg/m3 and 885.2 ± 2 kg/m3.

`COCCOCCOC` [2,5,8-trioxanonane]: the mass density is 894.8 ± 1.1 kg/m3 and 893.4 ± 1.1 kg/m3.

Staying with this data set, now noted: 348.15 K; 101.33 kPa; Liquid; Concentric cylinders viscometry.
With `OCCOCCO` [diethylene glycol], the viscosity is on record as 5.019 ± 0.2 mPa·s.

Take `CCOCCOCCO` [3,6-dioxa-1-octanol]: the viscosity was found to be 1.343 ± 0.056 mPa·s.

As to `CCOCCO` [2-ethoxyethan-1-ol], the viscosity amounted to 0.77 ± 0.032 mPa·s.

As for `COCCOCCOC` [2,5,8-trioxanonane], the viscosity stood at 0.537 ± 0.022 mPa·s.

Still in this data set, the particulars now being: 348.15 K; 101.33 kPa; Liquid; Vibrating tube method.
On to `OCCOCCO` [diethylene glycol], for which the mass density amounted to 1077.8 ± 2 kg/m3.

Turning to `CCOCCOCCO` [3,6-dioxa-1-octanol], the mass density worked out at 939.9 ± 4.1 kg/m3.

On to `CCOCCO` [2-ethoxyethan-1-ol], for which the mass density stood at 880.7 ± 2 kg/m3.

For `COCCOCCOC` [2,5,8-trioxanonane], the mass density turned out to be 889.7 ± 1.1 kg/m3.

The data set is the same for the next values; noted with them: 353.15 K; 101.33 kPa; Liquid; Concentric cylinders viscometry.
For the molecule `OCCOCCO` [diethylene glycol], the viscosity was 4.429 ± 0.18 mPa·s.

For `CCOCCOCCO` [3,6-dioxa-1-octanol], the viscosity came out at 1.225 ± 0.051 mPa·s.

On to `CCOCCO` [2-ethoxyethan-1-ol], for which the viscosity is recorded as 0.725 ± 0.03 mPa·s.

Turning to `COCCOCCOC` [2,5,8-trioxanonane], the viscosity worked out at 0.505 ± 0.021 mPa·s.

Staying with this data set, now noted: 353.15 K; 101.33 kPa; Liquid; Vibrating tube method.
Turning to `OCCOCCO` [diethylene glycol], the mass density was determined as 1074.1 ± 2 kg/m3.

As to `CCOCCOCCO` [3,6-dioxa-1-octanol], the mass density came out at 935.3 ± 4.1 kg/m3.

On to `CCOCCO` [2-ethoxyethan-1-ol], for which the mass density is recorded as 875.8 ± 2 kg/m3.

On to `COCCOCCOC` [2,5,8-trioxanonane], for which the mass density was 884.6 ± 1.1 kg/m3.

The data set is the same for the next values; noted with them: 358.15 K; 101.33 kPa; Liquid; Concentric cylinders viscometry.
Regarding `OCCOCCO` [diethylene glycol], the viscosity was determined as 3.944 ± 0.16 mPa·s.

With `CCOCCOCCO` [3,6-dioxa-1-octanol], the viscosity is listed as 1.153 ± 0.048 mPa·s.

Regarding `CCOCCO` [2-ethoxyethan-1-ol], the viscosity is on record as 0.666 ± 0.027 mPa·s.

In the case of `COCCOCCOC` [2,5,8-trioxanonane], the viscosity is 0.486 ± 0.02 mPa·s.

The same data set, now with this note: 358.15 K; 101.33 kPa; Liquid; Vibrating tube method.
Take `OCCOCCO` [diethylene glycol]: the mass density amounted to 1070.3 ± 2 kg/m3.

Consider `CCOCCOCCO` [3,6-dioxa-1-octanol], for which the mass density was found to be 930.7 ± 4.1 kg/m3.

Take `CCOCCO` [2-ethoxyethan-1-ol]: the mass density was 871 ± 2 kg/m3.

As to `COCCOCCOC` [2,5,8-trioxanonane], the mass density turned out to be 879.4 ± 1.1 kg/m3.

Still in this data set, the particulars now being: 363.15 K; 101.33 kPa; Liquid; Concentric cylinders viscometry.
With `OCCOCCO` [diethylene glycol], the viscosity is 3.527 ± 0.14 mPa·s.

With `CCOCCOCCO` [3,6-dioxa-1-octanol], the viscosity is given as 1.072 ± 0.045 mPa·s.

With `CCOCCO` [2-ethoxyethan-1-ol], the viscosity was determined as 0.623 ± 0.026 mPa·s.

Turning to `COCCOCCOC` [2,5,8-trioxanonane], the viscosity was found to be 0.464 ± 0.02 mPa·s.

The same data set, now with this note: 363.15 K; 101.33 kPa; Liquid; Vibrating tube method.
Take `OCCOCCO` [diethylene glycol]: the mass density came to 1066.6 ± 2 kg/m3.

For `CCOCCOCCO` [3,6-dioxa-1-octanol], the mass density is listed as 926.1 ± 4.1 kg/m3.

With `CCOCCO` [2-ethoxyethan-1-ol], the mass density turned out to be 866.1 ± 2 kg/m3.
